For the assay, the target named is T1, Recombinant human BACE-1 (Homo sapiens, UniProt P56817).
T1 construct: purchased R&D Systems
In words: Assay of β-secretase-inhibiting activity.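 Further: substrate is a peptide carrying biotin and europium cryptate, after the enzyme reaction, Streptavidin-XL665 is added and incubated 1 h at 30 °C before fluorescence reading.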 Format: biochemical. The conditions noted are these: Recombinant human BACE-1 7.4 nM, substrate peptide 18 nM, pH 5.0, 30° C., 3 hours.

The mark [1] stands for this setting: time-resolved fluorescence ratio 665/620, read-out: IC50 values (50% inhibitory concentration against the enzymatic activity).

The structures appear in SMILES notation. Read-outs that look alike come from different tables or passages of the source. Where only a bound is given, the exact number is not on record here.

T1 sequence (P56817 46-501): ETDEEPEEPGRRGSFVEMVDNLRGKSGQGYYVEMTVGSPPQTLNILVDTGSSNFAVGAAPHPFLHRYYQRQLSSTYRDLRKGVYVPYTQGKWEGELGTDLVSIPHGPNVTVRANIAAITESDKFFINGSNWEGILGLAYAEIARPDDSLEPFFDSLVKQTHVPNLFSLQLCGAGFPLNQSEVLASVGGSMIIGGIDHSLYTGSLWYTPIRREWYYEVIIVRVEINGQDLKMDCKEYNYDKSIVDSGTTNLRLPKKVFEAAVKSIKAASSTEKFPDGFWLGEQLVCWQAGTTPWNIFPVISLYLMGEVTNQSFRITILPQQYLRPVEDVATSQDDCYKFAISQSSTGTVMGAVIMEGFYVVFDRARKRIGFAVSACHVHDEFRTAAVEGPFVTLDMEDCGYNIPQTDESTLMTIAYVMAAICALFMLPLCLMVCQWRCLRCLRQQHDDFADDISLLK

On to `CSc1ccc(C(=O)Nc2ccc(F)c([C@]3(C)CCSC(N)=N3)c2)s1` [Compound 38], for which the IC50 (Table 139, read-out: IC50) came to 0.14 µM.
`Cc1cnc(C(=O)Nc2cncc([C@]3(C)CCSC(N)=N3)c2)cn1` [Compound 550]: the IC50 under setting [1] was not above 1 µM.
Still for that read-out and setting: the value for `C[C@@]1(c2cc(NC(=O)c3coc(Cl)n3)ccc2F)CCSC(N)=N1` [Compound 467] was not above 1 µM; that for `CC1(C)CSC(N)=N[C@]1(C)c1cc(NC(=O)c2ncccc2F)ccc1F` [Compound 661] was not above 1 µM.
Same read-out and setting: the value for `C[C@@]1(c2cccc(NC(=O)c3ccc(OCCF)cn3)c2)CCSC(N)=N1` [Compound 97] was not above 1 µM; that for `COc1cnc(C(=O)Nc2ccc(F)c([C@@]3(C)N=C(N)SC[C@@H]3OCc3ccccc3)c2)cn1` [Compound 683] was not above 1 µM.
For `Cc1cc(C(=O)Nc2cccc([C@]3(C)CCSC(N)=N3)c2)c(C)s1` [Compound 11], where the note is “Table 139, read-out: IC50”, the IC50 amounted to 0.17 µM.
For the molecule `C#CCOc1cnc(C(=O)Nc2ccc(F)c([C@@]3(C)N=C(N)SCC34CC4)c2)cn1` [Compound 676], the IC50 under setting [1] was not above 1 µM.
On to `Cc1cc2cc(NC(=O)c3ccc(OCCO)cn3)cc([C@]3(C)CCSC(N)=N3)c2o1` [Compound 464], for which the IC50 (Table 140, read-out: IC50) turned out to be 0.43 µM.
Consider `C[C@@]1(c2cc(NC(=O)c3c[nH]nc3C3CC3)ccc2F)CCSC(N)=N1` [Compound 499], for which, under setting [1], the IC50 was not above 1 µM.
Consider `CCOc1cnc(C(=O)Nc2ccc(F)c([C@]3(C)CCSC(N)=N3)c2)c(OCC)c1` [Compound 528], for which the IC50 under setting [1] is not above 1 µM.
Same read-out and setting: the value for `C[C@@]1(c2cc(NC(=O)c3cnc(/C=C/CO)cn3)ccc2F)CCSC(N)=N1` [Compound 162] was not above 1 µM; that for `Cc1cc(C(=O)Nc2cncc([C@]3(C)CCSC(N)=N3)c2)c(C)o1` [Compound 482] was not above 1 µM; that for `COCCOc1cnc(C(=O)Nc2cnc(Cl)c([C@]3(C)CCSC(N)=N3)c2)cn1` [Compound 583] was not above 1 µM.
In the case of `COCCCc1cnc(C(=O)Nc2ccc(F)c([C@]3(C)CCSC(N)=N3)c2)cn1` [Compound 118], the IC50 under setting [1] was not above 1 µM.
With `CC(C)=NOc1cnc(C(=O)Nc2cccc([C@]3(C)CCSC(N)=N3)c2)cn1` [Compound 113], the IC50 under setting [1] is not above 1 µM.
With `C[C@@]1(c2cc(Nc3ncc4ccccn34)ccc2F)CCSC(N)=N1` [Compound 668], under “Table 141, read-out: IC50”, the IC50 is 0.51 µM.
Consider `Cc1cc(C(=O)Nc2cncc([C@]3(C)CCSC(N)=N3)c2)n(C(C)(C)C)n1` [Compound 466], for which the IC50 under setting [1] was not above 1 µM.
The same measure, in the same setting: the value for `CC1(C)C[C@@](C)(c2cc(NC(=O)c3ncc(C(F)(F)F)cc3Cl)ccc2F)N=C(N)S1` [Compound 644] was not above 1 µM.
With `CC#CCCOc1cnc(C(=O)Nc2cccc([C@]3(C)CCSC(N)=N3)c2)cn1` [Compound 106], the IC50 (Table 139, read-out: IC50) came to 0.12 µM.
With `C[C@@]1(c2cncc(NC(=O)c3ccc(Cl)cn3)n2)CCSC(N)=N1` [Compound 581], under setting [1], the IC50 was not above 1 µM.
On the same count and under the same terms, for `COCCOc1cnc(C(=O)Nc2ccnc([C@]3(C)CCSC(N)=N3)c2)cn1` [Compound 549] the value was not above 1 µM.
Regarding `C[C@@]1(c2cccc(NC(=O)c3cnc(OCc4ccccc4)cn3)c2)CCSC(N)=N1` [Compound 101], the IC50 (Table 139, read-out: IC50) was found to be 0.08 µM.
Regarding `C[C@@]1(c2cc(NC(=O)c3cnc(-c4nccs4)cn3)ccc2F)CCSC(N)=N1` [Compound 519], the IC50 under setting [1] is not above 1 µM.
Same read-out and setting: the value for `C[C@@]1(c2cc(NC(=O)c3ncc(Cl)cc3Cl)ccc2F)CCSC(N)=N1` [Compound 690] was not above 1 µM.
Take `COCCOc1cnc(C(=O)Nc2cc([C@]3(C)CCSC(N)=N3)ccn2)cn1` [Compound 591]: the IC50 (Table 140, read-out: IC50) stood at 0.1 µM.
With `COCCOc1cnc(C(=O)Nc2cc([C@]3(C)CCSC(N)=N3)c3oc(C)cc3c2)cn1` [Compound 465], the IC50 under setting [1] is not above 1 µM.
With `Cn1cc(-c2cnc(C(=O)Nc3ccc(F)c([C@]4(C)CCSC(N)=N4)c3)cn2)cn1` [Compound 494], for the setting “Table 140, read-out: IC50”, the IC50 was 0.03 µM.
Take `C[C@@]1(c2cc(NC(=O)c3cnc(-c4ccco4)cn3)ccc2F)CCSC(N)=N1` [Compound 136]: the IC50 (Table 139, read-out: IC50) is 0.11 µM.
On to `CSc1ccc(C(=O)Nc2cccc([C@]3(C)CCSC(N)=N3)c2)nc1` [Compound 33], for which, under setting [1], the IC50 was not above 1 µM.
As to `CSc1ccc(NC(=O)c2cnc(C)cn2)cc1[C@]1(C)CCSC(N)=N1` [Compound 21], under setting [1], the IC50 is not above 1 µM.
As to `COc1cc(C(=O)Nc2cncc([C@]3(C)CCSC(N)=N3)c2)n(C)n1` [Compound 473], the IC50 (Table 140, read-out: IC50) is 0.17 µM.
For the molecule `CC(=O)c1ccc(C(=O)Nc2ccc(F)c([C@]3(C)CCSC(N)=N3)c2)s1` [Compound 530], the IC50 (Table 140, read-out: IC50) stood at 0.09 µM.
For `C#CCOc1cnc(C(=O)Nc2ccnc([C@]3(C)CC(C)(C)SC(N)=N3)c2)cn1` [Compound 657], under setting [1], the IC50 is not above 1 µM.
Turning to `C[C@@]1(c2cncc(NC(=O)c3sccc3Br)c2)CCSC(N)=N1` [Compound 515], the IC50 under setting [1] is not above 1 µM.
In the case of `C[C@]1(c2cc(NC(=O)c3ncccc3F)ccc2F)N=C(N)SCC1(F)F` [Compound 660], the IC50 (Table 141, read-out: IC50) was found to be 0.11 µM.
In the case of `C[C@@]1(c2cc(NC(=O)c3cnc(OCC4CCO4)cn3)ccc2F)CCSC(N)=N1` (some centres unmarked) [Compound 672], the IC50 under setting [1] was not above 1 µM.
For `C[C@@]1(c2cccc(NC(=O)c3cnc(OCC4CCO4)cn3)c2)CCSC(N)=N1` (some centres unmarked) [Compound 94], under “Table 139, read-out: IC50”, the IC50 turned out to be 0.17 µM.
For `COc1cnc(C(=O)Nc2ccc(F)c([C@@]3(C)N=C(N)SCC3(C)C)c2)cn1` [Compound 647], the IC50 under setting [1] was not above 1 µM.
Still for that read-out and setting: for `Cc1cn(-c2cnc(C(=O)Nc3ccc(F)c([C@]4(C)CCSC(N)=N4)c3)cn2)cn1` [Compound 578] the value was not above 1 µM.
`COCCOc1ccc(C(=O)Nc2ccc(F)c([C@]3(C)CCSC(N)=N3)c2)nc1` [Compound 93]: the IC50 (Table 139, read-out: IC50) was 0.08 µM.
Same read-out and setting: for `Cc1cc(C(=O)Nc2cccc([C@]3(C)CCSC(N)=N3)c2)c(C)o1` [Compound 3] the value was 0.08 µM.
As to `Cc1cscc1-c1cnc(C(=O)Nc2ccc(F)c([C@]3(C)CCSC(N)=N3)c2)cn1` [Compound 541], under setting [1], the IC50 was not above 1 µM.
Regarding `Cc1nc(Br)sc1C(=O)Nc1cncc([C@]2(C)CCSC(N)=N2)c1` [Compound 497], the IC50 (Table 140, read-out: IC50) was determined as 0.09 µM.
For the molecule `CC#CCOc1cnc(C(=O)Nc2cncc([C@]3(C)CCSC(N)=N3)c2)cn1` [Compound 595], the IC50 under setting [1] was not above 1 µM.
For `COc1cnc(C(=O)Nc2cncc([C@]3(C)CC(C)(C)SC(N)=N3)c2)cn1` [Compound 560], the IC50 under setting [1] is not above 1 µM.
As for `C[C@@]1(c2cc(NC(=O)c3nc4cnccc4[nH]3)ccc2F)CCSC(N)=N1` [Compound 484], the IC50 (Table 140, read-out: IC50) was found to be 0.29 µM.
Still for that read-out and setting: the value for `Cc1cc(C)n(-c2cnc(C(=O)Nc3ccc(F)c([C@]4(C)CCSC(N)=N4)c3)cn2)n1` [Compound 579] was 0.14 µM.
`COCC#CCOc1ccc(C(=O)Nc2ccc(F)c([C@]3(C)CCSC(N)=N3)c2)nc1` [Compound 571]: the IC50 under setting [1] was not above 1 µM.
Same read-out and setting: for `CC#CCOc1cnc(C(=O)Nc2ccc(F)c([C@]3(C)CCSC(N)=N3)c2)cn1` [Compound 100] the value was not above 1 µM.
Take `CC#CCOc1cnc(C(=O)Nc2cccc([C@]3(C)CC(C)(C)SC(N)=N3)c2)cn1` [Compound 695]: under setting [1], the IC50 is not above 1 µM.
As to `C[C@@]1(c2cc(NC(=O)c3cc4cccnc4s3)ccc2F)CCSC(N)=N1` [Compound 539], the IC50 under setting [1] is not above 1 µM.
Consider `COCCOc1cnc(C(=O)Nc2ccc(F)c([C@]3(C)CCSC(N)=N3)c2)c(N)n1` [Compound 46], for which, under setting [1], the IC50 was not above 1 µM.
In the case of `CC1(C)C[C@@](C)(c2cncc(NC(=O)c3cnc(OCCF)cn3)c2)N=C(N)S1` [Compound 568], the IC50 under setting [1] is not above 1 µM.
Still for that read-out and setting: for `COCCOc1cnc(C(=O)Nc2cncc([C@]3(C)CC(C)(C)SC(N)=N3)c2)cn1` [Compound 562] the value was not above 1 µM.
For `Cc1cncc(C(=O)Nc2ccc(F)c([C@]3(C)CCSC(N)=N3)c2)n1` [Compound 585], the IC50 (Table 140, read-out: IC50) is 0.06 µM.
For `COCCOc1cnc(C(=O)Nc2cncc([C@]3(C)CCSC(N)=N3)c2)cn1` [Compound 590], under setting [1], the IC50 is not above 1 µM.
With `Cc1cn2cc(C(=O)Nc3ccc(F)c([C@]4(C)CCSC(N)=N4)c3)ncc2n1` [Compound 652], the IC50 (Table 141, read-out: IC50) amounted to 0.06 µM.
Consider `C#CCCOc1cnc(C(=O)Nc2cccc([C@]3(C)CCSC(N)=N3)c2)cn1` [Compound 105], for which the IC50 (Table 139, read-out: IC50) stood at 0.13 µM.
Consider `CCn1nc(C)cc1C(=O)Nc1cncc([C@]2(C)CCSC(N)=N2)c1` [Compound 479], for which the IC50 under setting [1] was not above 1 µM.
For the molecule `Cc1ccc(NC(=O)c2cnc(Cl)cn2)cc1C1(C)CCSC(N)=N1` (centres unmarked) [Compound 141], the IC50 (Table 139, read-out: IC50) was 0.12 µM.
Take `Cc1nc(C(=O)Nc2ccc(F)c([C@]3(C)CC(C)(C)SC(N)=N3)c2)co1` [Compound 609]: under setting [1], the IC50 was not above 1 µM.
Consider `C[C@@]1(c2cccc(NC(=O)c3cnc(OCC(F)F)cn3)c2)CCSC(N)=N1` [Compound 92], for which the IC50 (Table 139, read-out: IC50) worked out at 0.08 µM.
Regarding `Cc1cc(C(=O)Nc2ccc(F)c([C@]3(C)CCSC(N)=N3)c2)nn1C` [Compound 488], the IC50 (Table 140, read-out: IC50) amounted to 0.26 µM.
On to `C[C@@]1(c2cc(NC(=O)c3cnc(-n4ccc(C(F)(F)F)n4)cn3)ccc2F)CCSC(N)=N1` [Compound 580], for which, for the setting “Table 140, read-out: IC50”, the IC50 was found to be 0.13 µM.
As to `COc1cnc(C(=O)Nc2ccc(F)c([C@@]3(C)N=C(N)SCC34CC4)c2)cn1` [Compound 675], the IC50 under setting [1] is not above 1 µM.
Same read-out and setting: for `C[C@@]1(c2cc(NC(=O)c3cnc(OCC(F)F)cn3)ccc2F)CCSC(N)=N1` [Compound 131] the value was not above 1 µM.
Take `C[C@@]1(c2cc(NC(=O)CCc3cccc(N)c3)ccc2F)CCSC(N)=N1` [Compound 150]: the IC50 (Table 139, read-out: IC50) came out at 2.48 µM.
Turning to `C=Cc1cnc(C(=O)Nc2cccc([C@]3(C)CCSC(N)=N3)c2)cn1` [Compound 66], the IC50 (Table 139, read-out: IC50) stood at 0.15 µM.
As to `Cc1cnc(C(=O)Nc2ccc(Br)c(C3(C)CCSC(N)=N3)c2)cn1` (centres unmarked) [Compound 492], under setting [1], the IC50 was not above 1 µM.
On the same count and under the same terms, the value for `CC#CCNc1cnc(C(=O)Nc2ccc(F)c([C@]3(C)CCSC(N)=N3)c2)cn1` [Compound 120] was not above 1 µM.

For the origin of these results see patent US20100075957A1, “AMINODIHYDROTHIAZINE DERIVATIVES SUBSTITUTED WITH A CYCLIC GROUP” (SHIONOGI & CO., LTD., priority 2007, published 2010).
